Results from ChEMBL document CHEMBL4043095, “Cyclic MOG35-55 ameliorates clinical and neuropathological features of experimental autoimmune encephalomyelitis” (2017).
Activity calls are given as the source filed them. The calls are words filed in the database; no cut-off is given here. Residues, ends and D or L forms follow the SMILES beside them.

Legend:
[1] = tested on: Mus musculus; assay: (§1) Antiinflammatory activity in C57BL/6 mouse EAE model subcutaneously immunized using 1:1 mixture of linear and cyclic MOG35 to 55 peptide in presence of complete Freunds adjuvant (CFA) followed by intraperitoneal pertussis toxin assessed as reduction demyelinating area measured 46 days post disease induction by Bielschowsky silver impregnation staining method combined with haematoxylin staining-based assay; format: functional
[2] = tested on: Mus musculus; assay: (§2) Antiinflammatory activity in C57BL/6 mouse EAE model subcutaneously immunized using 1:1 mixture of linear and cyclic MOG35 to 55 peptide in presence of complete Freunds adjuvant (CFA) followed by intraperitoneal pertussis toxin assessed as protection against axonal injury by measuring normal cell population in spinal cord measured 16 days post disease induction (reference value: 4.3%); format: functional
[3] = tested on: Mus musculus; assay: (§3) Immunomodulatory activity in C57BL/6 mouse subcutaneously immunized using 1:1 mixture of linear and cyclic MOG35 to 55 peptide in presence of complete Freunds adjuvant (CFA) followed by intraperitoneal pertussis toxin assessed as reduction in overall disease burden measured 16 days post disease induction; format: functional
[4] = tested on: Mus musculus; assay: as §3, with “46” for “16”; format: functional
[5] = target: HLA-DRB2 protein (Homo sapiens) (UniProt Q30155); assay: Inhibition of AMCA-labeled MBP (83 to 99) binding to HLA-DR2b […] in human HTC-Lan B cells at 50 fold excess after 48 hrs by fluorescence spectrophotometric method; format: cell-based
[6] = tested on: Mus musculus; assay: as §1, with “in size of inflammatory foci” for “demyelinating area”, “Luxol fast blue (LFB)” for “Bielschowsky silver impregnation”, “counterstained” for “method combined”, “Nuclear fast Red” for “haematoxylin”; format: functional
[7] = tested on: Mus musculus; assay: as §1, with “in size of inflammatory foci” for “demyelinating area”; format: functional
[8] = tested on: Mus musculus; assay: as §2, with “46” for “16”, “32%)” for “4.3%)”; format: functional
[9] = tested on: Mus musculus; assay: as §1, with “Luxol fast blue (LFB)” for “Bielschowsky silver impregnation”, “counterstained” for “method combined”, “Nuclear fast Red” for “haematoxylin”; format: functional
[10] = tested on: Mus musculus; assay: as §2, with “as” for “as protection against”, “loss” for “injury by measuring normal cell population”, “13 to 30.4%)” for “4.3%)”; format: functional
[11] = tested on: Mus musculus; assay: as §1, with “in size of inflammatory foci” for “demyelinating area”, “16” for “46”; format: functional
[12] = tested on: Mus musculus; assay: as §2, with “loss” for “injury”, “46” for “16”, “27.3%)” for “4.3%)”; format: functional
[13] = tested on: Mus musculus; assay: as §1, with “16” for “46”; format: functional
[14] = tested on: Mus musculus; assay: as §1, with “16” for “46”, “Luxol fast blue (LFB)” for “Bielschowsky silver impregnation”, “counterstained” for “method combined”, “Nuclear fast Red” for “haematoxylin”; format: functional
[15] = tested on: Mus musculus; assay: as §2, with “as” for “as protection against”, “injury” for “injury by measuring normal cell population”, “46” for “16”, “0.7 to 36%)” for “4.3%)”; format: functional
[16] = tested on: Mus musculus; assay: as §2, with “loss” for “injury”; format: functional
[17] = tested on: Mus musculus; assay: as §2, with “as” for “as protection against”, “injury” for “injury by measuring normal cell population”, “15.2 to 42.4%)” for “4.3%)”; format: functional
[18] = tested on: Mus musculus; assay: as §2, with “as” for “as protection against”, “loss” for “injury by measuring normal cell population”, “46” for “16”, “4.7 to 26%)” for “4.3%)”; format: functional
[19] = tested on: Mus musculus; assay: as §1, with “in size of inflammatory foci” for “demyelinating area”, “16” for “46”, “Luxol fast blue (LFB)” for “Bielschowsky silver impregnation”, “counterstained” for “method combined”, “Nuclear fast Red” for “haematoxylin”; format: functional
[20] = target: HLA-DRB2 protein (Homo sapiens) (UniProt Q30155); assay: Inhibition of AMCA-labeled MBP (83 to 99) binding to HLA-DR2b […] in human HTC-Lan B cells at 20 fold excess after 48 hrs by fluorescence spectrophotometric method; format: cell-based
[21] = target: HLA-DRB2 protein (Homo sapiens) (UniProt Q30155); assay: Inhibition of AMCA-labeled MBP (83 to 99) binding to HLA-DR2b […] in human HTC-Lan B cells at 10 fold excess after 48 hrs by fluorescence spectrophotometric method; format: cell-based

Sequence of HLA-DRB2 protein (Homo sapiens) (Q30155 as listed by the source): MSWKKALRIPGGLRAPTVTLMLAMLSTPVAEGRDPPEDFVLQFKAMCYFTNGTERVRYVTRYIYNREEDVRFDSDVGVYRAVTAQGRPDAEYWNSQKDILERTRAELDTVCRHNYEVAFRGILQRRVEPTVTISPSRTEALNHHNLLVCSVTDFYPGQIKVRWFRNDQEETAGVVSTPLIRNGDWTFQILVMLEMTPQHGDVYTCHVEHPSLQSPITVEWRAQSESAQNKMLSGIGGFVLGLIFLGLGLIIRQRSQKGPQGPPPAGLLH

Compound: CSCC[C@@H]1NC(=O)[C@H](CCCCN)NC(=O)CNC(=O)[C@H](CC(N)=O)NC(=O)[C@H](CCCNC(=N)N)NC(=O)[C@H](Cc2ccc(O)cc2)NC(=O)[C@H](CC(C)C)NC(=O)[C@H](Cc2cnc[nH]2)NC(=O)[C@H](C(C)C)NC(=O)[C@H](C(C)C)NC(=O)[C@H](CCCNC(=N)N)NC(=O)[C@H](CO)NC(=O)[C@H](Cc2ccccc2)NC(=O)[C@@H]2CCCN2C(=O)[C@H](CO)NC(=O)[C@H](CCCNC(=N)N)NC(=O)[C@H](Cc2ccc(O)cc2)NC(=O)[C@H](Cc2c[nH]c3ccccc23)NC(=O)CNC(=O)[C@H](C(C)C)NC(=O)[C@H](CCC(=O)O)NC1=O (cyclo(EVGWYRSPFSRVVHLYRNGKM))
- Activity [1]: Active
- Activity [2]: 37.1%
- Activity [3]: Active
- Activity [4]: Active
- inhibition [5]: Active
- Activity [6]: Active
- Activity [7]: Active
- Activity [8]: 48.3%
- Activity [9]: Active
- Activity [10]: 1.7 - 27.6%
- Activity [11]: Active
- Activity [12]: 45.6%
- Activity [13]: Active
- Activity [14]: Active
- Activity [15]: 0.7 - 26.5%
- Activity [16]: 36.2%
- Activity [17]: 0.9 - 40.5%
- Activity [18]: 2 - 27.2%
- Activity [19]: Active

Compound: CSCC[C@H](N)C(=O)N[C@@H](CCC(=O)O)C(=O)N[C@H](C(=O)NCC(=O)N[C@@H](Cc1c[nH]c2ccccc12)C(=O)N[C@@H](Cc1ccc(O)cc1)C(=O)N[C@@H](CCCNC(=N)N)C(=O)N[C@@H](CO)C(=O)N1CCC[C@H]1C(=O)N[C@@H](Cc1ccccc1)C(=O)N[C@@H](CO)C(=O)N[C@@H](CCCNC(=N)N)C(=O)N[C@H](C(=O)N[C@H](C(=O)N[C@@H](Cc1cnc[nH]1)C(=O)N[C@@H](CC(C)C)C(=O)N[C@@H](Cc1ccc(O)cc1)C(=O)N[C@@H](CCCNC(=N)N)C(=O)N[C@@H](CC(N)=O)C(=O)NCC(=O)N[C@@H](CCCCN)C(=O)O)C(C)C)C(C)C)C(C)C (H-MEVGWYRSPFSRVVHLYRNGK-OH)
- inhibition [20]: Active

Compound: CC[C@H](C)[C@H](NC(=O)[C@H](CC(N)=O)NC(=O)[C@H](CCCCN)NC(=O)[C@H](Cc1ccccc1)NC(=O)[C@H](Cc1ccccc1)NC(=O)[C@H](Cc1cnc[nH]1)NC(=O)[C@@H](NC(=O)[C@@H](NC(=O)[C@@H]1CCCN1C(=O)[C@H](CC(N)=O)NC(=O)[C@@H](N)CCC(=O)O)C(C)C)C(C)C)C(=O)N[C@H](C(=O)N[C@H](C(=O)N1CCC[C@H]1C(=O)N[C@@H](CCCNC(=N)N)C(=O)N[C@H](C(=O)N1CCC[C@H]1C(=O)O)[C@@H](C)O)[C@@H](C)O)C(C)C
- inhibition [21]: Active
